The results in this text go back to article PMC12839112, “Synthesis and Bioactivity Assessment of Novel Quinolinone–Triazole Hybrids” (Biomolecules, 2025).

One data set in a line: in vitro. The conditions noted are these: human.
Data set [1] is described as follows: Inhibition of linoleic acid peroxidation induced by AAPH radical. The conditions noted are these: 100 μM, 37 °C, pH 7.4. On the procedure: The in vitro assays were performed at a concentration of 100 µM (a 10 mM stock solution in DMSO was used, from which several dilutions were made for the determination of IC50 values), at least in triplicate, and the standard deviation of absorbance was less than 10% of the mean. The compounds were diluted in 0.1% DMSO under sonification in an appropriate buffer in several dilutions. Statistical comparisons were made using Student’s t-test. A statistically significant difference was defined as p < 0.05. The results were compared to the corresponding reference compounds.
The determination of the ability of the synthesized compounds to inhibit linoleic acid peroxidation induced by the radical initiator 2,2-Azobis(2-amidinopropane) dihydrochloride (AAPH) was performed according to Hadjipavlou-Litina et al.. Ten microliters of the 16 mM sodium linoleate solution were added to the UV cuvette containing 0.93 mL of a 0.05 M phosphate buffer, pH 7.4, pre-thermostated at 37 °C. The oxidation reaction was initiated at 37 °C under air by the addition of 50 µL of a 40 mM AAPH solution, which was used as a free radical initiator. Oxidation was carried out in the presence of aliquots (10 µL) in the assay without antioxidants and monitored at 234 nm. Lipid oxidation was recorded in the presence of the same level of DMSO served as a negative control. results are compared to the appropriate standard compound Trolox.
In an attempt to assess the in vitro antioxidant potential of the synthesized compounds, their inhibitory activity against lipid peroxidation of linoleic acid sodium salt was examined, induced by AAPH radical under atmospheric oxygen at 37 °C. The anti-lipid peroxidation was recorded with UV spectrophotometrically. The assay is a quick and widely used method for the assessment of antioxidant activity.

In data set [2] the target is T1, soybean lipoxygenase (LOX) (Glycine max, UniProt P08170).
T1 sequence (P08170 1-839): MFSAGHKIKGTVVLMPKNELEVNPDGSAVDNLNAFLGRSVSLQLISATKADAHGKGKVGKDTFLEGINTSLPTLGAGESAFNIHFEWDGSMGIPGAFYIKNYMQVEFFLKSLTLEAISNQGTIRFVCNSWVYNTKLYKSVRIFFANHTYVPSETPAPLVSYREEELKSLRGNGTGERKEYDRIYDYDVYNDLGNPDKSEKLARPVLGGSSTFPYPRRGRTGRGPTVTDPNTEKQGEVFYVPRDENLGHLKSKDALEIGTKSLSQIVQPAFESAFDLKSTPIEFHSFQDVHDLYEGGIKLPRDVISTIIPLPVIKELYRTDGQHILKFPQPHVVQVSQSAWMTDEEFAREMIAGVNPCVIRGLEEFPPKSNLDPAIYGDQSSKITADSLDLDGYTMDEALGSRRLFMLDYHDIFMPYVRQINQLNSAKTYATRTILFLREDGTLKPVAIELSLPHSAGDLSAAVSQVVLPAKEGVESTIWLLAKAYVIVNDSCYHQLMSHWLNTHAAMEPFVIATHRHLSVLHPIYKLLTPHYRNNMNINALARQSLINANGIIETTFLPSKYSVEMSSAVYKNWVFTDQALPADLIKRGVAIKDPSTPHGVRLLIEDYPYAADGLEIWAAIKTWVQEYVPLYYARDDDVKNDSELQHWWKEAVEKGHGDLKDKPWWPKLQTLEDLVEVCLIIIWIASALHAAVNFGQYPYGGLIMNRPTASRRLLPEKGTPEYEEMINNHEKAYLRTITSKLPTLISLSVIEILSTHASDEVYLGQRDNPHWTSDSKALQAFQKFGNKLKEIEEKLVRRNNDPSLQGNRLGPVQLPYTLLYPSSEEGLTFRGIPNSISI
The experiment in a line: Soybean LOX inhibition in vitro. The conditions noted are these: for inhibition at 100 µM: 100 μM (0.1 mM), read-out: Inhibition of LOX (% at 100 μΜ). Type of data set: biochemical. On the procedure: The compounds were diluted in 0.1% DMSO under sonification in an appropriate buffer in several dilutions. Statistical comparisons were made using Student’s t-test. A statistically significant difference was defined as p < 0.05.
The determination of the inhibition of soybean LOX for the synthesized compounds was performed according to Hadjipavlou-Litina et al.. The tested compounds were incubated at room temperature with sodium linoleate (0.1 mM) and 0.2 mL of enzyme solution (1/9 × 10^−4 w/v in saline). The method was based on the conversion of sodium linoleate to 13-hydroperoxylinoleic acid at 234 nm. In order to determine the […] values, different concentrations were used.
As evidence of anti-inflammatory activity, the quinolinone derivatives were examined for their ability to inhibit soybean lipoxygenase (LOX). LOX catalyzes the cleavage of arachidonic acid to leukotrienes that are found to play a crucial role in the pathogenesis of some inflammatory diseases.

The subject of another data set is A375 cell line. The experiment in a line: Cytotoxicity, MTT assay, A375 cells. As to conditions: Homo sapiens, A-375, 24 h, read-out: % Cytotoxicity A375 (100 μΜ). (Tetrazolium dyes change colour on reduction, which living cells bring about.)
In the next data set the test system is A549 cell line. The experiment in a line: Cytotoxicity, MTT assay, A549 cells. The conditions noted are these: Homo sapiens, A549, 24 h, read-out: % Cytotoxicity A549 (100 μΜ).
Data set [3] in a line: Cell viability, MTT assay, HaCaT cells. The conditions noted are these: human.
Experimental: (§1) The determination of the cell viability of HaCaT cells and the cell toxicity of A549 and A375 cell lines was performed according to Myriagkou et al. [57], via the MTT (3-(4,5-dimethylthiazol-2-yl)-2,5-diphenyltetrazolium bromide) assay. In a 96-well plate, cells were seeded at specific concentrations (30 × 10^4 cells/mL for HaCaT cells and 20 × 10^4 cells/mL for A549 and A375 cells) and incubated (37 °C, 5% CO2) for 24 h. Following this first incubation period, solutions of the tested compounds at various concentrations were added to the cells, and the plates were incubated for an additional 24 h. Upon the second incubation period, the appropriate volume of MTT solution (1 mg/mL in PBS, filtrated through a 0.22-μm filter) was added to each well, and the plate was incubated for 4 h, during which formazan crystals were formed. The crystals were dissolved by addition of 100 μL od DMSO in each cell and after 30 min of stirring, the absorbance was recorded at 450 nm using a microplate reader. All tests were undertaken on three replicates and compared to the control (untreated cells), the blank (medium), and the reference control (cells treated with 100 μM silibinin).
(§2) The cytotoxicity of the novel compounds was also measured via the mehtylthiazol tetrazolium (MTT) assay.

pIC50: −log10 of the molar value.

Experimental for A375 cell line: as §1, §2
Experimental for A549 cell line: as §1, §2

Turning to `C#CCNC(=O)c1c(O)c2ccccc2n(CCCc2ccccc2)c1=O` [4f, 4-hydroxy-2-oxo-1-(3-phenylpropyl)-N-(prop-2-yn-1-yl)-1,2-dihydroquinoline-3-carboxamide], the viability (usually a per cent measure of how many cells are alive, often set against a control) at 24 h, 100 µM in “in vitro” came to 76.9%. For the same compound, the “Inhibition of Linoleic Acid Peroxidation (% at 100 μΜ)” value (shortened to “Inhibition … (% at 100 μΜ)”) in data set [1] was 81.1%. The inhibition (commonly the drop in the measured response relative to a control, in per cent) at 100 µM in data set [2] was found to be 49.3%. Moreover, the cytotoxicity at 100 µM in the data set with A375 cell line and in the data set with A549 cell line was 0% throughout.

Compound `CC(C)=CCn1cc(CNC(=O)c2c(O)c3ccccc3n(CC=Cc3ccccc3)c2=O)nn1` [5h, 1-cinnamyl-4-hydroxy-N-((1-(3-methylbut-2-en-1-yl)-1H-1,2,3-triazol-4-yl)methyl)-2-oxo-1,2-dihydroquinoline-3-carboxamide] showed a viability at 24 h, 100 µM in data set [3] of 98.9%. In data set [1], the “Inhibition … (% at 100 μΜ)” value amounted to 18.7%. For the same compound, the inhibition at 100 µM in data set [2] amounted to 44.5%. Also, the cytotoxicity at 100 µM with A375 cell line and with A549 cell line was 0% in each case.

Take `CC(C)=CCn1cc(CNC(=O)c2c(O)c3ccccc3n(Cc3ccccc3)c2=O)nn1` [5j, 1-benzyl-4-hydroxy-N-((1-(3-methylbut-2-en-1-yl)-1H-1,2,3-triazol-4-yl)methyl)-2-oxo-1,2-dihydroquinoline-3-carboxamide]: the viability at 24 h, 100 µM in data set [3] is 100%. Also, the “Inhibition … (% at 100 μΜ)” value in data set [1] worked out at 92.0%. Moreover, the pIC50 (as a rule, the negative decadic logarithm of the IC50, by convention in mol/L) in data set [2] (sodium linoleate substrate) is 4.39. The cytotoxicity at 100 µM with A375 cell line turned out to be 0%; in the data set on A549 cell line it was 18.8%.
